In BindingDB's records for doi:10.7270/Q2Q81BH4 (Nmmlsc, 2009):

Biological target: T1, Mitogen-activated protein kinase kinase kinase 3 (Homo sapiens, UniProt Q99759)
T1 sequence (Q99759 whole entry): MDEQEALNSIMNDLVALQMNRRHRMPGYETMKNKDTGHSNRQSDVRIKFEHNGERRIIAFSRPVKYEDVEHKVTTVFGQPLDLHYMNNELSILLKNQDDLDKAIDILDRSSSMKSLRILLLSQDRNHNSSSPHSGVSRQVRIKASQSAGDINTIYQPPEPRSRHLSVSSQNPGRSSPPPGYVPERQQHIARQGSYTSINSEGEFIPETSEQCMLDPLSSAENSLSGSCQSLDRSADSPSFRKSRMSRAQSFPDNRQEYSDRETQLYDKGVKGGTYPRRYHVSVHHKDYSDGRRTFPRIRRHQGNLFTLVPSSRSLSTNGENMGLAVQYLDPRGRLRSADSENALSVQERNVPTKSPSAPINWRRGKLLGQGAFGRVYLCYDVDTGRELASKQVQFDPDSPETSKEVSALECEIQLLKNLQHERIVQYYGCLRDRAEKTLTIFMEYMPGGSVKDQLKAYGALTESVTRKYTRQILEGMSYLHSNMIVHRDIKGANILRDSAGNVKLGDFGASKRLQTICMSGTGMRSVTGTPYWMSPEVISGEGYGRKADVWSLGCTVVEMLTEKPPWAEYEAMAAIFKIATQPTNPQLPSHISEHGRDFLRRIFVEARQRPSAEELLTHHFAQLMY
Experiment: MEKK3–MEK5 PB1 domain interaction inhibitors – multiplex assay, wild-type MEKK3, SAR follow-up (AID 2145)

| Compound | EC50 [µM] | EC50 (inactive by the depositor's call) [µM] |
| --- | --- | --- |
| COc1cc([N+](=O)[O-])ccc1-c1nn2c(-c3ccco3)nnc2s1 [3-(2-furanyl)-6-(2-methoxy-4-nitrophenyl)-[1,2,4]triazolo[3,4-b][1,3,4]thiadiazole] | > 30 |  |
| CCOc1cccc(-c2nn3c(-c4ccco4)nnc3s2)c1 [6-(3-ethoxyphenyl)-3-(2-furanyl)-[1,2,4]triazolo[3,4-b][1,3,4]thiadiazole] | > 30 |  |
| COc1cc([N+](=O)[O-])ccc1-c1nn2c(-c3ccccn3)nnc2s1 | > 30 |  |
| c1ccc(-c2nnc3sc(C4CCCCCC4)nn23)nc1 | > 30 |  |
| c1c[nH]c(-c2nn3c(-c4ccco4)nnc3s2)c1 [(6Z)-3-(2-furanyl)-6-(2-pyrrolylidene)-5H-[1,2,4]triazolo[3,4-b][1,3,4]thiadiazole] | > 30 |  |
| c1ccc(-c2nnc3sc(-c4ccc[nH]4)nn23)nc1 | > 30 |  |
| c1coc(-c2nnc3sc(C4CCCCC4)nn23)c1 [6-cyclohexyl-3-(2-furanyl)-[1,2,4]triazolo[3,4-b][1,3,4]thiadiazole] | > 30 |  |
| CCOc1cccc(-c2nn3c(-c4cccs4)nnc3s2)c1 [6-(3-ethoxyphenyl)-3-thiophen-2-yl-[1,2,4]triazolo[3,4-b][1,3,4]thiadiazole] |  | 1.1 |
| COc1cccc(-c2nn3c(-c4ccccn4)nnc3s2)c1 | > 30 |  |
| c1ccc(-c2nnc3sc(C4CCCCC4)nn23)nc1 [VU0364704-1] | > 30 |  |
| c1coc(-c2nnc3sc(C4CCCCCC4)nn23)c1 [6-cycloheptyl-3-(2-furanyl)-[1,2,4]triazolo[3,4-b][1,3,4]thiadiazole] | > 30 |  |
| COc1ccc(-c2nn3c(-c4ccccn4)nnc3s2)cc1OC [6-(3,4-dimethoxyphenyl)-3-(2-pyridinyl)-[1,2,4]triazolo[3,4-b][1,3,4]thiadiazole] | > 30 |  |
| c1csc(Cc2nn3c(-c4ccncc4)nnc3s2)c1 | > 30 |  |
